Results on 10 molecules are retold here after patent publication EP3495350B1, “COMPOUND INHIBITING FORMATION OF C-MYC/MAX/DNA COMPLEX” (National Cancer Center, priority 2016, dated 2018).

Bounds are passed on as bounds.

The test system of test [1] is UM-UC-3. Nature of the test: Cell based assay, cell viability (CellTiter-Glo), UM-UC-3. To be noted: Homo sapiens, UMUC3; 72 hours, 0 to 2 µM; read-out: cell based assay cell line 4 UM-UC-3 IC50. As to the method: (§1) Commercially available bladder cancer cell lines were treated with trypsin-EDTA and seeded in each well of a 96 well plate, followed by incubation for 24 hours. After incubation, candidate compounds were added to each well at a final concentration of 0 to 2 µM. The compound-treated cells were further incubated for 72 hours. Cell viability was measured using an ATP detection method (CellTiter-Glo Luminescent Cell Viability Assay, Promega).
(§2) The selectivity of the compounds of the present disclosure to cancer cells was evaluated in the same manner as described in "2. Cell based assay".
On the technique in general: ATP-based viability assays read luminescence as a measure of living cells.

Test [2] deals with 253J. Kind of test: Cell based assay, cell viability (CellTiter-Glo), 253J. To be noted: Homo sapiens; 72 hours, 0 to 2 µM; read-out: cell based assay cell line 3 253J IC50. As to the method:
as §1, §2

The subject of test [3] is KU19-19. Nature of the test: Cell based assay, cell viability (CellTiter-Glo), KU19-19. To be noted: Homo sapiens, KU-19-19; 72 hours, 0 to 2 µM; read-out: cell based assay cell line 2 KU19-19 IC50. As for the experimental part:
as §1, §2

The test system of test [4] is MBT-2. Nature of the test: Cell based assay, cell viability (CellTiter-Glo), MBT-2. As to conditions: 72 hours, 0 to 2 µM; read-out: cell based assay cell line 1 MBT-2 IC50. As for the experimental part:
as §1, §2

Broadly, the IC50 is the point on the concentration scale where inhibition reaches its midpoint. In the case of `CC(=O)c1c([S+]([O-])Cc2ccc(C(F)(F)F)o2)[nH]c2c(Br)ccc(Cl)c2c1=O` (stereo not shown) [Compound 72, 3-acetyl-8-bromo-5-chloro-2-(((5-(trifluoromethyl)furan-2-yl)methyl)sulfinyl)quinolin-4(1H)-one], the IC50 was determined as 0.82 µM in test [1], 0.83 µM in test [2], 1.37 µM in test [3] and 1.01 µM in test [4].
The like results for `CC(=O)c1c([S+]([O-])Cc2ccc(C#N)cc2)[nH]c2c(Br)ccc(Cl)c2c1=O` (stereo not shown) [Compound 73, 4-(((3-acetyl-8-bromo-5-chloro-4-oxo-1,4-dihydroquinolin-2-yl)sulfinyl)methyl)benzonitrile] were, in that order, 1.62 µM, 1.34 µM, 2 µM and 1 µM.
The like results for `CC(=O)c1c([S+]([O-])Cc2c(F)cccc2Cl)[nH]c2c(Br)ccc(Cl)c2c1=O` (stereo not shown) [Compound 74, 3-acetyl-8-bromo-5-chloro-2-((2-chloro-6-fluorobenzyl)sulfinyl)quinolin-4(1H)-one] were, in that order, 1.54 µM, 0.81 µM, 1.64 µM and 1.15 µM.
On the same counts, the results for `COc1cc(S(F)(F)(F)(F)F)ccc1C[S+]([O-])c1[nH]c2c(Br)ccc(Cl)c2c(=O)c1C(C)=O` (stereo not shown) [Compound 75, 3-acetyl-8-bromo-5-chloro-2-((2-methoxy-4-(pentafluoro-λ6-sulfanyl)benzyl)sulfinyl)quinolin-4(1H)-one] are 1.01 µM, 0.86 µM, 1.21 µM and 1.05 µM.
For the molecule `CC(=O)c1c([S+]([O-])Cc2cc(F)cc(S(F)(F)(F)(F)F)c2)[nH]c2c(Br)ccc(Cl)c2c1=O` (stereo not shown) [Compound 76, 3-acetyl-8-bromo-5-chloro-2-((3-fluoro-5 - (pentafluoro-λ6-sulfanyl)benzyl)sulfinyl)quinolin-4(1H)-one], the IC50 amounted to 1.39 µM in test [1], 1.24 µM in test [2], 1.86 µM in test [3] and 1.86 µM in test [4].
Turning to `CC(=O)c1c([S+]([O-])Cc2cccc(S(F)(F)(F)(F)F)c2)[nH]c2c(Br)ccc(Cl)c2c1=O` (stereo not shown) [Compound 77, 3-acetyl-8-bromo-5-chloro-2-((3-(pentafluoro-λ6-sulfanyl)benzyl)sulfinyl)quinolin-4(1H)-one], the IC50 in test [1] is 1.18 µM; in test [2], 0.9 µM; in test [3], 1.38 µM; in test [4], 1.45 µM.
For the molecule `CC(=O)c1c([S+]([O-])Cc2c(F)c(F)c(F)c(F)c2F)[nH]c2c(Br)ccc(Cl)c2c1=O` (stereo not shown) [Compound 78, 3-acetyl-8-bromo-5-chloro-2-(((perfluorophenyl)methyl)sulfinyl)quinolin-4(1H)-one], the IC50 in test [1] was 1.39 µM; in test [2], 1.29 µM; in test [3] it was over 2 µM; in test [4] it was 1.53 µM.
As to `CC(=O)c1c([S+]([O-])Cc2ccc(SC(F)(F)F)cc2)[nH]c2c(Cl)ccc(Cl)c2c1=O` (stereo not shown) [Compound 79, 3-acetyl-5,8-dichloro-2-((4-((trifluoromethyl)thio)benzyl)sulfinyl)quinolin-4(1H)-one], the half-maximal inhibitory concentration (IC50) in test [1], in test [2], in test [3] and in test [4] was over 2 µM in each case.
Regarding `CC(=O)c1c([S+]([O-])Cc2ccc(S(F)(F)(F)(F)F)cc2)[nH]c2c(F)ccc(F)c2c1=O` (stereo not shown) [Compound 80, 3-acetyl-5,8-difluoro-2-((4-(pentafluoro-λ6-sulfanyl)benzyl)sulfinyl)quinolin-4(1H)-one], the half-maximal inhibitory concentration (IC50) in test [1], in test [2], in test [3] and in test [4] was over 2 µM in each case.
Regarding `CC(=O)c1c([S+]([O-])Cc2ccc(C(F)(F)F)o2)[nH]c2c(F)ccc(F)c2c1=O` (stereo not shown) [Compound 81, 3-acetyl-5,8-difluoro-2-(((5-(trifluoromethyl)furan-2-yl)methyl)sulfinyl)quinolin-4(1H)-one], the IC50 in test [1], in test [2], in test [3] and in test [4] was over 2 µM throughout.
